In patent US20190252042A1, “INDENTIFICATION AND ANTIBIOTIC CHARACTERIZATION OF PATHOGENS IN METAGENOMIC SAMPLE” (BIOMÉRIEUX, priority 2016, published 2019):

Experiments:
E aerogenes = test: Antibiotic Susceptibility Testing (AST) profile by classical microbiology, BAL sample 1; assay type: cell-based; details: positive BAL metagenomic sample 1, pathogen E aerogenes
From the text: Three validation studies of the metagenomic analysis according to the invention have been done. The first validation study relies on in silico simulated metagenomes (validation study 1), the second validation study is a set of 3 positive miniBAL metagenomic samples for which only the culture identification is available (validation study 2), and the third validation study is a set 2 positive BAL metagenomic samples with identification and AST profiles available (validation study 3). For all the evaluation, Kraken is used for taxonomic binning and ARD binning (steps 22, 24) and IDBA-UD is used for assembly (step 28).
In Table 3, one notes that both pipelines give very similar results and results coherent with classical microbiology, at least for identification results. Both pipelines give similar results, probably because the ARD retrieved are present in the reference sequences of the 2 pathogens, ie. AmpC must be present in the reference sequences of E. aerogenes, and ANT(9)-1A in the reference sequences of S aureus.

S aureus = test: Antibiotic Susceptibility Testing (AST) profile by classical microbiology, BAL sample 2; assay type: cell-based; details: positive BAL metagenomic sample 2, pathogen S aureus

Row | Molecule | AST profile (E aerogenes) | AST profile (S aureus)
1 | CO/N=C(\C(=O)N[C@@H]1C(=O)N2C(C(=O)O)=C(COC(N)=O)CS[C@H]12)c1ccco1 [cefuroxime] | intermediate resistance: cefuroxime | 
2 | peniciline |  | resistance: peniciline, clindamycine
3 | CC1(C)S[C@@H]2[C@H](NC(=O)[C@H](N)c3ccc(O)cc3)C(=O)N2[C@H]1C(=O)O [amoxiciline] | resistance: amoxiciline, clavunalate | 
4 | O=C(O)[C@H]1/C(=C/CO)O[C@@H]2CC(=O)N21 [clavunalate] | resistance: amoxiciline, clavunalate | 
